Measurements: patent US6448269B1 (Eli Lilly and Company, priority 1993, dated 2002)
Counter-ions that a name gives are not always drawn.

What was measured:
[1] = biological target: T1, GPIIb-IIIa (Homo sapiens, UniProt P05106+P08514); test: ELISA IIb-IIIa assay (fibrinogen binding to immobilized GPIIb-IIIa); conditions: purified platelet GPIIb-IIIa receptor coated on ELISA plates; biotin-labeled fibrinogen 10 nM, 3 hours at 25° C.
T1 construct: Purified platelet GPIIb-IIIa receptor was prepared as described by Fitzgerald; from tissue; host or cells: platelets
T1 sequence (P08514 32-887 limits assumed): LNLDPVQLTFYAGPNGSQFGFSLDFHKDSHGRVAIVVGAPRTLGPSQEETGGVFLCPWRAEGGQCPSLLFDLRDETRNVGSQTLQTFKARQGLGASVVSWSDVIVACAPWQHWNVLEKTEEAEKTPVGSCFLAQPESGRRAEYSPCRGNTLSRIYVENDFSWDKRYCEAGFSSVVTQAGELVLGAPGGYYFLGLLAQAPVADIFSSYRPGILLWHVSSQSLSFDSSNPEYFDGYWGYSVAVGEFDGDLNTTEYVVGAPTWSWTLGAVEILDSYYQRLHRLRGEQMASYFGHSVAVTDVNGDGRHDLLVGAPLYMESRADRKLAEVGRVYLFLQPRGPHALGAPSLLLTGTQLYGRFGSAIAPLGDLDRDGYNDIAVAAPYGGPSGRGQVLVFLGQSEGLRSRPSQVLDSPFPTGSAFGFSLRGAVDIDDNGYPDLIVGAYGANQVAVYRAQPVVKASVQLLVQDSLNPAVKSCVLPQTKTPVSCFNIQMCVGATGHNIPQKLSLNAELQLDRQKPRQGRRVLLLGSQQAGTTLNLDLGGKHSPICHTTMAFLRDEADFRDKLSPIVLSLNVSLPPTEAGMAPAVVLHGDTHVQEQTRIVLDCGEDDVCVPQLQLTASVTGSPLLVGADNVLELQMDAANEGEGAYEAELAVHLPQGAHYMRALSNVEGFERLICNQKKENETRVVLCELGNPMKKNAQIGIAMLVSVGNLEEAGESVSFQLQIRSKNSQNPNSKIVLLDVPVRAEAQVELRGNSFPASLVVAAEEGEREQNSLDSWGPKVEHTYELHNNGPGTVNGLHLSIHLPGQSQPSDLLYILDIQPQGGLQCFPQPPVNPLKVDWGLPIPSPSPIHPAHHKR
T1 sequence (P05106 27-788): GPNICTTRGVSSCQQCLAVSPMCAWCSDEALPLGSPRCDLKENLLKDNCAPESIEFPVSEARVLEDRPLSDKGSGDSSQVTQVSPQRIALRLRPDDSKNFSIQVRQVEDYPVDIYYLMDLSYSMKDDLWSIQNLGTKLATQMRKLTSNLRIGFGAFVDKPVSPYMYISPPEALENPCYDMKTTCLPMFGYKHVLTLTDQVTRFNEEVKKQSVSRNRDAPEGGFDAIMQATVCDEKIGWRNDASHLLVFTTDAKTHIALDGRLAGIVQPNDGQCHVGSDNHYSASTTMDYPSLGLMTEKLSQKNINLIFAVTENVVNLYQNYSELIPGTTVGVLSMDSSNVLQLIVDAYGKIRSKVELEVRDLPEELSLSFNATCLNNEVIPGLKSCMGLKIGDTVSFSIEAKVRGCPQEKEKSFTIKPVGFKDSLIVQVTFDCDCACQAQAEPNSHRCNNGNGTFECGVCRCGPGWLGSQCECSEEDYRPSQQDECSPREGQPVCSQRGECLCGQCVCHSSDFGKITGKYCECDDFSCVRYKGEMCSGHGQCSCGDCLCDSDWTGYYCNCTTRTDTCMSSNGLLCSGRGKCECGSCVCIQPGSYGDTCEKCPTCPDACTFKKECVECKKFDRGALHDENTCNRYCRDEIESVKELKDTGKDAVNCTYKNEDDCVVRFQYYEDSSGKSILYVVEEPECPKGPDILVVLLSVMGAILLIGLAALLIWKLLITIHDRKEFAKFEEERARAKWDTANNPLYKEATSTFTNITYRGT
Method: In the following assay, GPIIb-IIIa is prepared in purified form, by a method such as described by Fitzgerald, L. A., et al., Anal Biochem (1985) 151:169-177, (the disclosure of which is incorporated herein by reference). GPIIb-IIIa is coated onto microtiter plates. The coated support is then contacted with fibrinogen and with the test material (e.g., compounds of Formula I) and incubated for a sufficient time to permit maximal binding of fibrinogen to the immobilized GPIIb-IIIa. Fibrinogen is typically provided at a concentration of about 5-50 nM and the test material can, if desired, be added at a series of dilution. Typical incubations are 2 to 4 hours at 25° C., the time and temperature being interdependent.
After incubation, the solution containing the fibrinogen and test material is removed and the level of binding of fibrinogen measured by quantitating bound fibrinogen to GPIIb-IIIa. Any suitable means of detection may be used, but it is convenient to employ labeled fibrinogen, for example using biotinylated labels. Such methods are well known in the art.
Purified platelet GPIIb-IIIa receptor was prepared as described by Fitzgerald, L. A., et al., Anal Biochem (1985) 151:169-177 (1985). Vitronectin receptor was prepared as described by Smith, J. W., J. Biol Chem (1988) 263:18726-18731. After purification, the receptors were stored in 0.1% Triton X-100 at 0.1-1.0 mg/ml.
The receptors were coated to the wells of 96-well flat-bottom ELISA plates (Linbro EIA-Plus microtiter plate, Flow Laboratories) after diluting 1:200 with a solution of 20 mM Tris-HCl, 150 mM NaCl, 1 mM CaCl2, pH 7.4, to reduce the Triton X-100 concentration to below its critical micellar concentration and adding an aliquot of 100 ul to each well. The wells were all allowed to incubate overnight at 4° C., and then aspirated to dryness. Additional sites were blocked by the addition of bovine serum albumin (BSA) at 35 mg/ml in the above buffer for 2 hours at 30° C. to prevent nonspecific binding. The wells were then washed once with binding buffer ([…] Tris-HCl, 100 mM NaCl 2 mM CaCl2, 1 mg/ml BSA).
The corresponding ligands (fibrinogen, von Willebrand Factor, or vitronectin) were conjugated to biotin using commercially available reagents and standard protocols. The labeled ligands were added to the receptor-coated wells at final concentration of 10 nM (100 ul/well) and incubated for 3 hours at 25° C. in the presence or absence of the test samples. After incubation, the wells are aspirated to dryness and bound ligand is quantitated.
The bound protein is detected by the addition of antibiotin antibody conjugated to alkaline phosphatase followed by addition of substrate (p-nitrophenyl phosphate), and determination of the optical density of each well at […]. Decreased color development is observed in wells incubated with test samples which inhibit binding of ligand to receptor.

[2] = test system: human platelet-rich plasma; test: Platelet aggregation assay (Aggregation-Human PRP/ADP); assay type: cell-based; conditions: 1 min; human platelet-rich plasma incubated with compound 1 minute at 37° C.; ADP-induced aggregation; read-out: Agg: Human PRP/ADP IC50uM
Method: Platelet-rich plasma was prepared from healthy human volunteers for use in determining inhibition of platelet aggregation by the compounds.
Platelet-rich plasma was prepared at room temperature by centrifugation of the citrated whole blood at 100×g for 12 minutes. The platelet rich plasma contained approximately 200-400,000 platelets/μl.
Platelet-poor plasma was prepared by centrifugation of citrated whole blood at 12,000×g for 2 minutes.
Platelet aggregation was assayed in a 4-channel platelet aggregation profiler (PAP-4, Biodata, Hatboro, Pa.) according to the manufacturers directions. Inhibition of platelet aggregation was studied by adding varying amounts of […] to stirred human platelet-rich plasma. Specifically, the human platelet-rich plasma was incubated with the compound being tested for 1 minute at 37° C. prior to the addition of a variety of aggregating agents most often ADP 5 μM, but also 1 μg/ml collagen, 1 μM U46619 and 0.3 μM platelet activating factor.

IC50 [1] [µM]	SMILES	IC50 [2] [µM]
–	CCOC(=O)CC1CCc2cc(OCc3ccc(C(=N)N)cc3)ccc2O1 (racemic) [Example 45, Hydrochloride]	11
–	NC(=O)c1ccc(C(=O)Nc2ccc3c(c2)CCC(CC(=O)O)O3)cc1 (racemic) [Example 49, rac-(6-(N-(4-Carbamoylbenzoyl)amino)-3,4-dihydro-2H-1-benzopyran-2-yl)acetic Acid]	100
–	CCOC(=O)CCC1(C)C=Cc2cc(OCc3ccc(C(=N)N)cc3)ccc2O1 (racemic) [Example 52, Hydrochloride]	100
–	O=C(O)CC1CCc2cc(OCCCCC3CCNCC3)ccc2O1 (racemic) [Example 54, rac-(3,4-Dihydro-6-(4-(piperidin-4-yl)butoxy)-2H-1-benzopyran-2-yl)acetic Acid Trifluoroacetate]	12
–	CCOC(=O)CC1CCc2cc(NC(=O)c3ccc(C(=N)N)cc3Cl)ccc2C1=O (racemic) [Example 62, Hydrochloride]	6.8
–	CCOC(=O)CCC1(C)CC(=O)c2cc(OCc3ccc(C(=N)N)cc3)ccc2O1 (racemic) [Example 66, Hydrochloride]	> 100
–	CC1(CCC(=O)O)CC(=O)c2cc(OCc3ccc(C(=N)N)cc3)ccc2O1 (racemic) [Example 67, Hydrochloride]	29
> 1	CCOC(=O)CC1CCc2cc(NC(=O)c3ccc(C(=N)NC(=O)OCC)cc3)ccc2O1 (racemic) [Example 68]	–
–	CCOC(=O)CC1CCc2cc(NC(=O)c3ccc(C(=N)N)cc3Cl)ccc2O1 (racemic) [Example 75, acetate Hydrochloride]	1.8
–	CCOC(=O)CC1CCc2cc(NC(=O)/C=C/C3CCNCC3)ccc2O1 (racemic) [Example 77, Ethyl rac-(3,4-Dihydro-6-(N-(3-(piperidine-4-yl)propenoyl)amino)-2H-1-benzopyran-2-yl)acetate Trifluoroacetate]	1.3
–	CCOC(=O)CC1CC(C)(C)c2cc(NC(=O)c3ccc(C(=N)N)cc3)ccc2O1 (racemic) [Example 79, Hydrochloride]	> 100
–	CC1(C)CC(CC(=O)O)Oc2ccc(NC(=O)c3ccc(C(=N)N)cc3)cc21 (racemic) [Example 80, rac-(6-(N-(4-(Aminoiminomethyl)benzoyl)amino)-3,4-dihydro-4,4-dimethyl-2H-1-benzopyran-2-yl)acetic Acid]	> 100
–	CCCNC(=N)c1ccc(C(=O)Nc2ccc3c(c2)CCC(CC(=O)OCC)O3)cc1 (racemic) [Example 81, Hydrochloride]	0.39
–	CCCCNC(=N)c1ccc(C(=O)Nc2ccc3c(c2)CCC(CC(=O)OCC)O3)cc1 (racemic) [Example 83, Hydrochloride]	0.14
–	CCCOC(=O)NC(=N)c1ccc(C(=O)Nc2ccc3c(c2)CCC(CC(=O)OCC)O3)cc1 (racemic) [Example 85]	> 100
–	CCCOC(=O)CC1CCc2cc(NC(=O)c3ccc(C(=N)N)cc3)ccc2O1 (racemic) [Example 86, hydrochloride]	0.078
–	COC(=O)CC1CCc2cc(NC(=O)c3ccc(C(=N)N)cc3)ccc2O1 (racemic) [Example 87, Hydrochloride]	0.084
–	CCOC(=O)CC1CCc2cc(NC(=O)c3ccc(C(=N)NCc4ccccc4)cc3)ccc2O1 (racemic) [Example 92, Ethyl rac-(3,4-Dihydro-6-(N-(4-(N′-(phenylmethylamino)iminomethyl)benzoyl)amino)-2H-1-benzopyran-2-yl)acetate Hydrochloride]	0.24
–	N=C(N)NCc1ccc(COc2ccc3c(c2)CCN(CC(=O)O)C3=O)cc1 [Example 21, 6-[[4-(Guanidinomethyl)phenyl]methoxy]-3,4-dihydro-1-oxo-2(1H)-isoquinoline Acetic Acid Trifluoroacetate]	> 100
0.22	O=C(O)CNC1CCc2cc(OCCCC3CCNCC3)ccc2C1 (stereo not drawn) [Example 25]	–
0.52	N=C(N)c1ccc(COc2ccc3c(c2)CCC(NCC(=O)O)C3)cc1 (stereo not drawn) [Example 26]	–
0.11	CC(=O)N(CC(=O)O)C1CCc2cc(OCc3ccc(C(=N)N)cc3)ccc2C1 (stereo not drawn) [Example 27]	–
–	N=C(N)c1ccc(C(=O)Nc2ccc3c(c2)CCC(CC(=O)O)C3=O)cc1 (stereo not drawn) [Example 30]	0.06
0.005	N=C(N)c1ccc(COc2ccc3cc(CC(=O)O)ccc3c2)cc1 [Example 33]	–
0.16	N=C(N)c1ccc(COc2ccc3c(c2)CCN(C(=O)C(=O)O)C3)cc1 [Example 44]	–

SMILES	IC50 [1] [µM]	IC50 [2] [µM]
CCCCCCNC(=O)C(CC(=O)O)N1CCc2cc(OCc3ccc(C(=N)N)cc3)ccc2C1=O (racemic) [Example 5, (+−)-6-[[4-(Aminoiminomethyl)phenyl]methoxy]-3,4-dihydro-1-oxo-beta[hexylamino Carbonyl]-2(1H)-isoquinolone Propanoic Acid Trifluoroacetate]	0.033	7
